The numbers were not newly measured in patent US20150192564A1, “PROFILING REACTIVE OXYGEN, NITROGEN AND HALOGEN SPECIES” (ENZO LIFE SCIENCES, INC., C/O ENZO BIOCHEM, INC, priority 2008, published 2015), which cites them from elsewhere.

For this data set the following is noted: neutral pH and extremes of pH; cited from earlier work.

As for `Nc1ccc2c(c1N)C(=O)c1ccccc1C2=O` [DAQ, 1,2-diaminoanthraquinone], the pH stability result is reported as “stable at neutral pH, as well as at extremes of pH”.
